Values after ≈ are worked out from the molar mass of the structure shown. Where a SMILES comes first, the peptide text is derived from it. [ ]: non-standard residue; d: D form. The star is where a group is joined. Phe(4-tBu) = CC(C)(C)c1ccc(C[C@H](N)C(=O)O)cc1; tBuAla = CC(C)(C)C[C@H](N)C(=O)O; Tle = CC(C)(C)[C@H](N)C(=O)O; OBn = c1ccc(CO*)cc1

This note sets out measurements from US9115169B2, “Method of treating tumors” (Lytix Biopharma AS, priority 2000, dated 2015).

For experiment [1], the system named is Staphylococcus aureus ATCC 25923. Briefly: microbe, parasite or virus in culture. The conditions noted are these: ATCC25923, read-out: MIC S. aureus.
The subject of experiment [2] is Escherichia coli ATCC 25922. Briefly: microbe, parasite or virus in culture. The conditions noted are these: ATCC25922, read-out: MIC E. coli.
Experiment [3] relates to Escherichia coli ATCC 25922. The conditions noted are these: for MBC E. coli: ATCC 25922; for bacteriostatic or bactericidal: in respect of E. coli, high MBC but low MIC indicates bacteriostatic.
Experiment [4] has as its system Staphylococcus aureus ATCC 25923. The conditions noted are these: ATCC 25923.
In experiment [5] the test system is Escherichia coli ATCC 25922. The conditions noted are these: ATCC 25922.
Experiment [6] has as its system Staphylococcus aureus ATCC 25923. The conditions noted are these: ATCC 25923. The source holds these as a separate data set.
Experiment [7] relates to fresh human red blood cells. In kind it is cell-based. As to the method:
The hemolytic activities of the peptides were determined using fresh human red blood cells. 8 ml blood was taken from a healthy person. 4 ml blood was transferred to a polycarbonate tube containing heparin to a final concentration of 10 U/ml, and the remaining 4 ml blood was transferred to a glass tube containing EDTA with final concentration of 15% EDTA. The erythrocytes were isolated from heparin-treated blood by centrifugation in 1500 rpm for 10 min and washed three times with phosphate-buffered saline (PBS) to remove plasma and buffy coat. The cell pellet was resuspended in PBS to make the final volume of 4 ml. The peptide was diluted to a concentration of 2 mg/ml and 0.1 mg/ml. The peptide was further diluted to the concentrations as stated in Table 15. For each tube PBS was added first, then RBCs and peptide solutions. The hematocrit in the blood treated with EDTA was determined after 30 min with Sysmex K-1000, and the resuspended RBCS were diluted into 10% hematocrit. RBCs in PBS (1%) with and without peptides (Table 15) were incubated in a shaker at 37° for 1 hour and then centrifuged at 4000 rpm for 5 min. The supernatant were carefully transferred to new polycarbonate tubes and the absorbance of the supernatant was measured at 540 nm. […]

Experiment [8] has as its system MRSE ATCC 27626. The conditions noted are these: ATCC 27626.
Description: (§1) All strains were stored at −70° C. […] All assays were performed in duplicate.
Experiment [9] concerns MRSA ATCC 33591. The conditions noted are these: ATCC 33591.
Description: as §1
Experiment [10] concerns E. coli. Briefly: Electronmicrograph of treated bacteria. The experiment is classed as cell-based. The conditions noted are these: FIG. 2. The source says: FIG. 1 is an electronmicrograph of normal (untreated) E. coli, and
FIG. 2 is an electronmicrograph of E. coli treated with one of the peptides described herein, WRWRWR [SEQ ID NO:1].

The subject of experiment [11] is P. aeruginosa.
Description: as §1

For the compound `CC(C)(C)c1cc(C(C)(C)C)c2[nH]c(C(C)(C)C)c(C[C@H](N)C(=O)NCCCCN)c2c1` [H-Tbt-Dab-H], the MIC in experiment [1] and in experiment [2] was 35 µg/mL (≈ 79.1 µM) in each case.
Regarding `CC(C)(C)c1cc(C(C)(C)C)c2[nH]c(C(C)(C)C)c(C[C@H](N)C(=O)NCCN)c2c1` [H-Tbt-Dae-H], the MIC in experiment [1] and in experiment [2] was 15 µg/mL (≈ 36.2 µM) each time.
In the case of `CC(C)(C)c1cc(C(C)(C)C)c2[nH]c(C(C)(C)C)c(C[C@H](N)C(=O)NCCCCCCN)c2c1` [H-Tbt-Dah-H], the MIC in experiment [1] and in [2] was 15 µg/mL (≈ 31.9 µM) in each case.
As for `COC(=O)[C@H](CCCNC(=N)N)NC(=O)[C@H](Cc1c(C(C)(C)C)[nH]c2c(C(C)(C)C)cc(C(C)(C)C)cc12)NC(=O)[C@@H](N)CCCNC(=N)N` [RTbtR OMe, H-Arg-Tbt-Arg-OMe], in [3], the “MBC E. coli” value came to 50 µg/mL (≈ 71.5 µM) and the bacteriostatic or bactericidal result is on record as “bactericidal”. In experiment [4], the “MIC S. aureus” value is given as 5 (5) μg/ml. Besides, the “MIC E. coli” value in [5] was determined as 25 µg/mL (≈ 35.8 µM). Further, the “MBC S. aureus” value in experiment [6] is listed as 5 (5) μg/ml. Also, the “haemolysis EC50” value in [7] turned out to be 720 µg/mL.
With `COC(=O)[C@H](CCCNC(=N)N)NC(=O)[C@@H](N)Cc1c(C(C)(C)C)[nH]c2c(C(C)(C)C)cc(C(C)(C)C)cc12` [TbtR OMe, H-Tbt-Arg-OMe], in experiment [3], the “MBC E. coli” value was determined as 200 µg/mL (≈ 368 µM) and the bacteriostatic or bactericidal result is reported as “bacteriostatic”. For the same compound, the “MIC MRSE” value in [8] is 4.0 µg/mL (≈ 7.37 µM). The “MBC S. aureus” value in [6] is reported as 10 (10) μg/ml. Moreover, the “MIC MRSA” value in experiment [9] stood at 4.0 µg/mL (≈ 7.37 µM). Further, the “haemolysis EC50” value in experiment [7] turned out to be 360 µg/mL.
On to `N=C(N)NCCC[C@H](NC(=O)[C@H](Cc1c[nH]c2ccccc12)NC(=O)[C@H](CCCNC(=N)N)NC(=O)[C@H](Cc1c[nH]c2ccccc12)NC(=O)[C@H](CCCNC(=N)N)NC(=O)[C@@H](N)Cc1c[nH]c2ccccc12)C(N)=O` [WRWRWR] (H-WRWRWR-NH2), for which the “MBC E. coli” value in [3] came out at 15 µg/mL (≈ 14.4 µM). The “MIC S. aureus” value in [4] is 7.5 µg/mL (≈ 7.18 µM). For the same compound, the “MIC E. coli” value in [5] is 7.5 µg/mL (≈ 7.18 µM). For the same compound, the “MBC S. aureus” value in [6] amounted to 10 µg/mL (≈ 9.58 µM). Also, the “appearance of treated E. coli in electronmicrograph” value in experiment [10] is “void of cytoplasmic matter and their cell membranes (as well as cell wall components) are destroyed”.
Take `CC(C)(C)C[C@H](N)C(=O)N[C@@H](CCCNC(=N)N)C(=O)OCc1ccccc1` [tBuAR-OBzl] (H-[tBuAla]-Arg-OBn; N-terminus assumed): the “MIC MRSE” value in experiment [8] came to 100.0 µg/mL (≈ 255 µM). Further, the “MIC S. aureus” value in experiment [4] worked out at 300.0 µg/mL (≈ 766 µM). In addition, the “MIC E. coli” value in experiment [5] is more than 300.0 µg/mL. In addition, in experiment [9], the “MIC MRSA” value lay within 150 to 200 µg/mL. The “MIC P. aerug.” value in experiment [11] was more than 300.0 µg/mL.
Turning to `CC(C)(C)c1ccc(C[C@H](N)C(=O)N[C@@H](CCCNC(=N)N)C(=O)OCc2ccccc2)cc1` [tBuFR-OBzl] (H-[Phe(4-tBu)]-Arg-OBn; N-terminus assumed), in experiment [8], the “MIC MRSE” value was 5.0 µg/mL (≈ 10.7 µM). Further, the “MIC S. aureus” value in experiment [4] worked out at 25.0 µg/mL (≈ 53.5 µM). Further, in [5], the “MIC E. coli” value came to 200.0 µg/mL (≈ 428 µM). In experiment [9], the “MIC MRSA” value is 12.5 to 25 µg/mL. In addition, the “MIC P. aerug.” value in [11] was 100.0 µg/mL (≈ 214 µM).
For the compound `COC(=O)[C@H](CCCNC(=N)N)NC(=O)[C@@H](N)Cc1ccc(C(C)(C)C)cc1` [tBuFR-OMe] (H-[Phe(4-tBu)]-Arg-OMe; N-terminus assumed), in [8], the “MIC MRSE” value came to 100.0 µg/mL (≈ 255 µM). In addition, the “MIC S. aureus” value in [4] was more than 300.0 µg/mL. The “MIC E. coli” value in [5] was more than 300.0 µg/mL. Also, the “MIC MRSA” value in [9] turned out to be 100.0 µg/mL (≈ 255 µM). Moreover, in experiment [11], the “MIC P. aerug.” value is more than 300.0 µg/mL.
As for `CC(C)(C)[C@H](N)C(=O)N[C@@H](CCCNC(=N)N)C(=O)OCc1ccccc1` [tBuGR-OBzl] (H-[Tle]-Arg-OBn; N-terminus assumed), the “MIC MRSE” value in experiment [8] came out at 150.0 µg/mL (≈ 397 µM). Besides, the “MIC S. aureus” value in [4] was more than 300.0 µg/mL. In addition, the “MIC E. coli” value in experiment [5] is more than 300.0 µg/mL. In addition, the “MIC MRSA” value in experiment [9] is 100.0 µg/mL (≈ 265 µM). Besides, the “MIC P. aerug.” value in experiment [11] was more than 300.0 µg/mL.
